Measured values: US4349672A, “Cephalosporin derivatives” (Hoffmann-La Roche Inc., priority 1979, dated 1982)
Structures can show the parent of a compound that is named as a salt.

Tests used:
Assay in all cases: Activity in vitro: minimum inhibitory concentration
Type in all cases: cell-based
Citrobacter freundii = system: Citrobacter freundii
Excerpt: (§1) Activity in vitro: Minimum inhibitory concentration (μg/ml)

Serratia marcescens = system: Serratia marcescens
Excerpt: as §1

Escherichia coli = system: Escherichia coli
Excerpt: as §1

Proteus mirabilis = system: Proteus mirabilis
Excerpt: as §1

Enterobacter aerogenes = conditions: Klebsiella aerogenes
Excerpt: as §1

Proteus vulgaris = system: Proteus vulgaris
Excerpt: as §1

Streptococcus pyogenes = conditions: gram positive
Excerpt: as §1

Acinetobacter anitratus = conditions: Acinetobacter calcoaceticus, gram negative
Excerpt: as §1

Proteus inconstans = conditions: Providencia alcalifaciens, gram negative
Excerpt: as §1

Klebsiella pneumoniae = system: Klebsiella pneumoniae
Excerpt: as §1

Proteus rettgeri = conditions: Providencia rettgeri, gram negative
Excerpt: as §1

Enterobacter cloacae = system: Enterobacter cloacae
Excerpt: as §1

[1] = Citrobacter freundii Strain 1, gram negative
[2] = Citrobacter freundii Strain 2, gram negative
[3] = Serratia marcescens Strain 1, gram negative
[4] = Serratia marcescens Strain 2, gram negative
[5] = Escherichia coli Strain 1, gram negative
[6] = Escherichia coli Strain 2, gram negative
[7] = Escherichia coli Strain 3, gram negative
[8] = Escherichia coli Strain 4, gram negative
[9] = Proteus mirabilis Strain 1, gram negative
[10] = Proteus mirabilis Strain 2, gram negative
[11] = Enterobacter aerogenes Strain 1, gram negative
[12] = Enterobacter aerogenes Strain 2, gram negative
[13] = Proteus vulgaris Strain 1, gram negative
[14] = Proteus vulgaris Strain 2, gram negative
[15] = Proteus vulgaris Strain 3, gram negative
[16] = Klebsiella pneumoniae Strain 1, gram negative
[17] = Klebsiella pneumoniae Strain 2, gram negative
[18] = Klebsiella pneumoniae Strain 3, gram negative
[19] = Enterobacter cloacae Strain 1, gram negative
[20] = Enterobacter cloacae Strain 2, gram negative

Compound | MIC (Citrobacter freundii; [1]) [µg/mL] | MIC (Citrobacter freundii; [2]) [µg/mL] | MIC (Serratia marcescens; [3]) [µg/mL] | MIC (Serratia marcescens; [4]) [µg/mL] | MIC (Escherichia coli; [5]) [µg/mL] | MIC (Escherichia coli; [6]) [µg/mL] | MIC (Escherichia coli; [7]) [µg/mL] | MIC (Escherichia coli; [8]) [µg/mL] | MIC (Proteus mirabilis; [9]) [µg/mL] | MIC (Proteus mirabilis; [10]) [µg/mL] | MIC (Enterobacter aerogenes; [11]) [µg/mL] | MIC (Enterobacter aerogenes; [12]) [µg/mL] | MIC (Proteus vulgaris; [13]) [µg/mL] | MIC (Proteus vulgaris; [14]) [µg/mL] | MIC (Proteus vulgaris; [15]) [µg/mL] | MIC (Streptococcus pyogenes) [µg/mL] | MIC (Acinetobacter anitratus) [µg/mL] | MIC (Proteus inconstans) [µg/mL] | MIC (Klebsiella pneumoniae; [16]) [µg/mL] | MIC (Klebsiella pneumoniae; [17]) [µg/mL] | other results
CO/N=C(\C(=O)N[C@@H]1C(=O)N2C(C(=O)O)=C(CSc3nc(=O)c(O)nn3C)CS(=O)(=O)[C@H]12)c1csc(N)n1 [Derivative B, disodium salt of (6R,7R)-7-[2-(2-amino-4-thiazolyl)-2-[(Z)-methoxyimino]acetamido]-3-[[(2,5-dihydro-6-hydroxy-2-methyl-5-oxo-as-triazin-3-yl)thio]methyl]-8-oxo-5-thia-1-azabicyclo[4.2.0]oct-2-ene-2-carboxylic acid 5,5-dioxide] | 0.19 | 0.19 | 1.6 | 0.78 | 0.05 | 0.39 | 0.19 | 0.39 | 0.1 | 0.78 | 0.39 | 0.1 | 0.39 | 0.19 | 0.19 | 3.1 | 100 | 0.025 | 0.39 | 0.19 | MIC (Klebsiella pneumoniae; [18]): 0.19 µg/mL; MIC (Proteus rettgeri): 0.05 µg/mL; MIC (Enterobacter cloacae; [19]): 6.3 µg/mL; MIC (Enterobacter cloacae; [20]): 0.39 µg/mL
CO/N=C(\C(=O)N[C@@H]1C(=O)N2C(C(=O)O)=C(CSc3nc(=O)c(O)nn3C)C[S@+]([O-])[C@H]12)c1csc(N)n1 [Derivative A, disodium salt of (6R,7R)-7-[2-(2-amino-4-thiazolyl)-2-[(Z)-methoxyimino]acetamido]-3-[[(2,5-dihydro-6-hydroxy-2-methyl-5-oxo-as-triazin-3-yl)thio]methyl]-8-oxo-5-thia-1-azabicyclo[4.2.0]oct-2-ene-2-carboxylic acid 5-(s)-oxide] | 0.19 | 0.05 | 0.39 | 0.19 | 0.025 | 0.19 | 0.1 | 0.1 | 0.025 | 0.39 | 0.19 | 0.1 | 0.1 | 0.1 | 0.05 | 1.6 | 25 | ≤ 0.006 | 0.1 | 0.025 | MIC (Klebsiella pneumoniae; [18]): 0.1 µg/mL; MIC (Proteus rettgeri): ≤ 0.006 µg/mL; MIC (Enterobacter cloacae; [19]): 3.1 µg/mL; MIC (Enterobacter cloacae; [20]): 0.19 µg/mL
